Key:
[1] = Stability data at 40° C. ± 2° C. and 75% ± 5% relative humidity (six months); format: physicochemical; conditions: 75% ± 5% RH
Protocol: (§1) As used herein, the term “prolonged storage” refers to storage for up to 6 months and different stability conditions refers to storage at 25° C. temperature and 60% relative humidity; or at 40° C. temperature and 75% relative humidity.
(§2) In another general aspect, there is provided a stable composition of Saroglitazar magnesium, wherein the composition contains Saroglitazar magnesium having purity of about 99.0% or more, by weight, by area percentage of HPLC, and one or more of the aldehyde compound of Formula (II), the diketo oxirane compound of Formula (III), the hydroxy methyl compound of Formula (IV), or the dimer compound of Formula (V) in an amount of about 0.15%, or less, by weight, relative to saroglitazar magnesium, on prolonged storage and under different stability conditions i.e. 40° C.±2° C. temperature and 75%±5% relative humidity and at 25° C.±2° C. temperature and 60±5% relative humidity as outlined by the six months' stability data as shown in Table-2 and 3.
(§3) The purity of the samples of Saroglitazar or salts thereof including magnesium and SMBA salt is measured by area percentage of HPLC using following conditions:
(§4) Equipment: Shimadzu LC2020CHT HPLC system or equivalent
(§5) Column: YMC-Pack Pro C18 ([…]×4.0 mm, 3 μm)
(§6) Detector: UV-VIS detector or PDA detector
(§7) Column Oven Temp.: 25° C.

[2] = Stability data at 25° C. ± 2° C. and 60% ± 5% relative humidity (six months); format: physicochemical; conditions: 60% ± 5% RH
Protocol: as §1, §2, §3, §4, §5, §6, §7

2-ethoxy-3-(4-(2-(2-methyl-5-(4-(methylthio)phenyl)-1H-pyrrol-1-yl)ethoxy)phenyl)propanoate [Saroglitazar magnesium]
LOD ([1]; 1 month): 0.48 % w/w
Related Substance by HPLC: Formula II ([1]; 1 month): 0.01 % w/w
Related Substance by HPLC: Formula V ([1]; 1 month): 0.12 % w/w
Related Substance by HPLC: Total impurities ([1]; 1 month): 0.12 % w/w
LOD ([1]; 2 month): 0.44 % w/w
Related Substance by HPLC: Formula II ([1]; 2 month): 0.01 % w/w
Related Substance by HPLC: Formula V ([1]; 2 month): 0.12 % w/w
Related Substance by HPLC: Total impurities ([1]; 2 month): 0.12 % w/w
LOD ([1]; 3 months): 0.30 % w/w
Related Substance by HPLC: Formula II ([1]; 3 months): 0.01 % w/w
Related Substance by HPLC: Formula V ([1]; 3 months): 0.11 % w/w
Related Substance by HPLC: Total impurities ([1]; 3 months): 0.12 % w/w
LOD ([1]; 6 months): 0.24 % w/w
Related Substance by HPLC: Formula V ([1]; 6 months): 0.12 % w/w
Related Substance by HPLC: Total impurities ([1]; 6 months): 0.12 % w/w
LOD ([1]; Initial): 0.51 % w/w
Related Substance by HPLC: Formula II ([1]; Initial): 0.01 % w/w
Related Substance by HPLC: Formula V ([1]; Initial): 0.11 % w/w
Related Substance by HPLC: Total impurities ([1]; Initial): 0.18 % w/w
LOD ([2]; 1 month): 0.43 % w/w
Related Substance by HPLC: Formula II ([2]; 1 month): 0.01 % w/w
Related Substance by HPLC: Formula V ([2]; 1 month): 0.12 % w/w
Related Substance by HPLC: Total impurities ([2]; 1 month): 0.12 % w/w
LOD ([2]; 2 month): 0.64 % w/w
Related Substance by HPLC: Formula II ([2]; 2 month): 0.01 % w/w
Related Substance by HPLC: Formula V ([2]; 2 month): 0.12 % w/w
Related Substance by HPLC: Total impurities ([2]; 2 month): 0.12 % w/w
LOD ([2]; 3 months): 0.27 % w/w
Related Substance by HPLC: Formula II ([2]; 3 months): 0.01 % w/w
Related Substance by HPLC: Formula V ([2]; 3 months): 0.12 % w/w
Related Substance by HPLC: Total impurities ([2]; 3 months): 0.12 % w/w
LOD ([2]; 6 months): 0.35 % w/w
Related Substance by HPLC: Formula V ([2]; 6 months): 0.12 % w/w
Related Substance by HPLC: Total impurities ([2]; 6 months): 0.12 % w/w
LOD ([2]; Initial): 0.51 % w/w
Related Substance by HPLC: Formula II ([2]; Initial): 0.01 % w/w
Related Substance by HPLC: Formula V ([2]; Initial): 0.11 % w/w
Related Substance by HPLC: Total impurities ([2]; Initial): 0.18 % w/w
